Like-named read-outs stand apart in the source and are kept apart here.
Assays:
[1] = Rat oral pharmacokinetics (plasma); type: in vivo; conditions: 20-30 μmol/kg; for half-life: mean n = 3, read-out: t½ (converted)
Method: Plasma (EDTA K2 anticoagulant) was collected from male, cannulated, CD Sprague Dawley rats to determine the pharmacokinetics of formulations containing compound inhibitors of Rho kinase. Each animal was dosed orally with a 4 ml/kg solution or suspension of each test compound in 10 mM acetate buffered saline, pH 4.5 at a final concentration range of 20-30 μmol/kg. Blood was collected at 0.25, 0.5, 1, 2, 4, 6, 8, and 24 hours. Plasma samples were assayed for the concentration of the test compound using an on-line, solid phase extraction LC/MS/MS analysis system.
Samples were analyzed on a QSTAR Elite, hybrid quadrupole time-of-flight mass spectrometer (Applied Biosystems, Framingham, Mass.) coupled with a Symbiosis Pharma integrated, on-line SPE-HPLC system (Spark Holland Inc., Plainsboro, N.J.). Analyst QS 2.0 software was used for instrument control, data acquisition and processing. […] Mobile Phase A consisted of 0.1% ammonium hydroxide in water and Mobile Phase B consisted of 0.1% formic acid in acetonitrile. Pharmacokinetic analyses were performed using WinNonlin software version 5.2 (Pharsight Corporation, Mountain View, Calif.).
As determined from the plasma concentration versus time curves, the time to peak and peak exposure are represented by the values Tmax and Cmax, respectively. The AUC values (nM*hr) shown were calculated as the areas under the plasma concentration versus time curves from time zero through the time of the last observable value and represent the total exposure of the compound over the course of the study. Half-life values or the amount of time required for the plasma levels of the compound to decline to half the initial value are represented as t½.

[2] = test system: ova-sensitized, ova-challenged mice; assay: Mouse ovalbumin sensitization model, in vivo anti-inflammatory activity (BALF eosinophils and cytokines); conditions: for Airway eosinophil infiltration (eosinophils per ml of BALF): dosed orally to day 31, anti-inflammatory dosing paradigm, FIG. 4
Method: Male BALB/c mice were ordered from Charles River Laboratories (Raleigh, N.C.). The animals were approximately 19 to 21 grams at time of receipt. Upon arrival, the animals were randomized into groups of five males per cage and assigned to a dosing group. Animals were quarantined for 7 days under test conditions. They were observed daily for general health status and ability to adapt to the water bottles. Animals were sensitized on day 0 and 14 of study by an intraperitoneal injection with 20 μg of ovalbumin (ova) and 2.0 mg aluminum hydroxide (alum) which initiates the development of a specific T-helper (Th) cells type 2 resulting in asthmatic animals (denoted as Ova in the figures). One group of animals received an injection of saline to use as control animals (denoted as normal in the figures). […] Aerosol challenge consists of using an Aerogen Aeroneb nebulizer and controller with a particle size of 4-6 μm mass median aerodynamic diameter (MMAD) with a distribution of 400 μl per minute. This aerosol challenge is necessary to target the Th2-driven allergic inflammation in the lower airways.
The anti-inflammatory dosing paradigm (FIG. 3) was utilized to evaluate the anti-inflammatory effects of experimental compounds. […] On day 32 of the experiment, after measurement of airway hyperreactivity, BALF was collected and all animals were anesthetized, bled and euthanized.
Bronchoalveolar lavage fluid (BALF) was collected by infusing 3.0 ml of saline with 10% fetal calf serum into the lungs via the trachea and then withdrawing the fluid. The total amount of cells/ml of BALF fluid was determined via manual cell count on hemocytometer. The BALF was centrifuged, supernatant removed and analyzed for cytokine concentrations as described below, and cell pellet reconstituted in 500 μL of fluid. Cytospin slides were prepared from the cell pellet using 100 μL of fluid and spinning samples for 5 minutes at 5000 rpms in a cytospin centrifuge. Following Hema3 stain, relative percentages of individual leukocytes were determined on a 200 cell count for each sample. The final concentration of individual leukocyte cell types per ml of BALF was determined by multiplication of the relative percentage of individual leukocytes with the total amount of cells/ml of BALF fluid.
The concentrations of cytokines in the BALF samples were determined using commercially available Bio-plex kits (Bio-Rad) for the detection of mouse IL-5, IL-13, and Eotaxin. The analysis of cytokine levels was measured using the Bio-Plex 200 (Bio-Rad) system according to the manufacturer's instructions.

[3] = test system: ova-sensitized, ova-challenged mice; assay: Prevention of airway hyperreactivity (Penh, methacholine) in mouse ovalbumin sensitization model; type: in vivo; conditions: for log10AUC (Penh): 15 μmol/kg/oral, days 27 to 31; for airway hyperreactivity to methacholine dosed on Day 32: oral 15 μMol/kg once a day during days 27 to 31
Method: The anti-inflammatory dosing paradigm consists of dosing the animals once a day starting on day 27 and finishing on either day 30 or 31 (1 hr prior to the aerosolized ovalbumin challenges on days 28 to 30) but not on day 32 when hyperreactivity evaluation occurs. […] Exposure to the methacholine doses consisted of a 3 minute period during which a nebulizer was aerosolizing the methacholine and an additional 3 minute period following the cessation of nebulization. […] Enhanced pause (Penh), a unitless index of airway hyperreactivity, is derived from the expiratory side of the respiratory waveform measured via the plethysmograph and is used as an indirect measure of airway resistance and hyperreactivity. […] Following the methacholine dose response, BALF was collected and all animals were anesthetized, bled and euthanized. […] The Penh value at each of the dose levels of methacholine represents the 6-minute average response. Change from baseline (CFB) in Penh was calculated at each methacholine dose and the area under the curve (AUC) for these CFB values was calculated using the trapezoidal rule. This same approach was applied for each mouse across multiple experiments. […] Data from equal experimental conditions across experiments performed on different days were pooled for statistical analysis and data reporting. […] A random intercept for each experiment was assumed to account for possible similarities of the results obtained from a given experiment (i.e., as a “blocking effect”). […] For FIG. 9, linear AUC values from compound treated mice were reported as a percent of linear AUC values from vehicle-treated ovalbumin-sensitized/ovalbumin-challenged (asthmatic) mice.

Akt3 human enzyme = molecular target: T1, Akt3 human enzyme (Homo sapiens, UniProt Q9Y243); assay: Akt3 inhibition assay (IMAP FP); type: biochemical;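 further: kinase reaction run 60 min at room temperature after 30 µM ATP start, phosphorylated substrate captured on IMAP beads and read as fluorescence polarization (mP)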
T1 construct: purchased Upstate Chemicon 14-502
Method: (§1) Inhibition of Akt3 and p70S6K activity was determined using the IMAP™ FP Progressive Binding Kit (Molecular Devices product number R8127). […] Following the pre-incubation, 30 μM ATP was added to initiate the reaction. After 60 minutes at RT, Molecular Devices IMAP™ binding solution was added to bind phosphorylated substrate. After 30 minutes of incubation in the presence of the IMAP™ beads the fluorescence polarization was read and the ratio was reported as mP. IC50 results were calculated using the Prism software from Graphpad. The Ki values were determined according to the following formula: Ki=IC50/(1+([ATP Challenge]/EC50 ATP)).

[4] = Compound concentrations in lungs of ova-sensitized, ova-challenged mice post IP, PO and IT administration; type: in vivo; conditions: male, Balb/c, mouse, lung, n = 9 or 10, read-out: Lung concentration (plasma corrected); for concentration at 3 h: BD model, time point 3 h; for concentration at 24 h: AI model, time point 24 h
Method: Additionally, compound concentrations were determined in the plasma and lungs of male, ovalbumin-sensitized, Balb/c mice from a murine model of asthma. Test compounds were formulated in water or 1% polysorbate 80 and dosed at 15 μmol/kg for intraperitoneal (IP) or oral (PO) administration or formulated for intratracheal (IT) administration and dosed at 5 μmol/kg, which directly targets the lungs. Following completion of the in vivo study, mice were euthanized and blood and plasma collected approximately 2.5-3 hours post administration of test compound for bronchodialator (BD) studies and 24 hours post administration for anti-inflamatory (AI) studies. Lungs were homogenized in Matrix A lysing tubes using a FastPrep 24 tissue and cell homogenizer (MP Biomedicals, Solon, Ohio). Both plasma samples and lung extracts were assayed for compound concentrations using an on-line, solid phase extraction LC/MS/MS system. The actual lung tissue concentrations of each compound in mouse were extrapolated from the lung and plasma concentrations, data are shown in Table 11. The results of a set of experiments using unsensitized mice and collecting only plasma 15 minutes post administration of test compounds are shown in Table 12.

human neutrophils = assay: Human neutrophil chemotaxis induced by fMLP (modified Boyden chamber); type: cell-based
Method in brief: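 Neutrophils from healthy volunteers' blood, isolated by Ficoll-paque centrifugation, dextran sedimentation and hypotonic red-cell lysis. Migration measured in a modified Boyden chamber (3 μm polycarbonate membrane) toward 1 μM fMLP for 1 h at 37° C., 5% CO2. Compounds tested in dose response.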

ROCK1 = molecular target: T2, ROCK1 (Homo sapiens, UniProt Q13464); assay: Rho kinase inhibition assay (IMAP fluorescence polarization), ROCK1; type: biochemical;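 further: kinase reaction run 60 min at room temperature, then phosphorylated substrate captured on IMAP beads for 30 min, with fluorescence polarization read in mP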
T2 construct: purchased Upstate/Chemicon 14-601
Method: (§2) Following the pre-incubation, 10 μM ATP was added to initiate the reaction. After 60 minutes at room temperature, Molecular Devices IMAP™ binding solution was added to bind phosphorylated substrate. After 30 minutes of incubation in the presence of the IMAP™ beads, the fluorescence polarization was read and the ratio was reported as mP. IC50 values for compounds and EC50 values for ATP were calculated using the Prism software from Graphpad.

ROCK2 = molecular target: T3, ROCK2 (Homo sapiens, UniProt O75116); assay: Rho kinase inhibition assay (IMAP fluorescence polarization), ROCK2; type: biochemical;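 further: kinase reaction started with 10 µM ATP and run 60 min at room temperature, then phosphorylated substrate captured on IMAP beads for 30 min and fluorescence polarization read in mP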
T3 construct: purchased Upstate/Chemicon 14-451
Method: as §2

[5] = Compound plasma concentrations in unsensitized mice at 15 min post administration; type: in vivo; conditions: mouse
human monocytes = assay: Human monocyte cytokine secretion assay (LPS-stimulated); type: cell-based; conditions: average percent of stimulated IL-1β secretion from human monocytes at 10 μM of test compound
Method: Peripheral blood from healthy human volunteers was collected and the monocytes isolated via Ficoll-paque density centrifugation. […] The cells were allowed to pre-incubate with test compound at the indicated concentration for 30 minutes (37° C., 5% CO2, humidified air); after which the supernatant was removed and media containing compound and 1 ng/mL LPS was added. Cells were allowed to incubate with compounds and LPS for 4 hours at 37° C. after which the supernatant was removed and stored at −80° C. Cytokine concentrations in the supernatant were determined using commercially available Bio-Rad Bio-plex™ kits according the manufacturer's instructions.

p70S6K human enzyme = molecular target: T4, p70S6K human enzyme (Homo sapiens, UniProt P23443, T412E); assay: p70S6K inhibition assay (IMAP FP); type: biochemical;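 further: kinase reaction run at room temperature, phosphorylated substrate captured on IMAP beads and read as fluorescence polarization in mP, IC50 then converted to Ki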
T4 construct: purchased Upstate Chemicon 14-486
Method: as §1

LPS-challenged mice = assay: LPS-induced neutrophilia and cytokine production assay; type: in vivo, mouse; conditions: intratracheal administration; FIG. 11B
Method: Male BALB/c mice, approximately 19 to 21 grams, were ordered from Charles River Laboratories (Raleigh, N.C.). All animals were challenged with aerosolized LPS (10 μg/ml) for 25 minutes on study day 0. LPS aerosol was generated using an Aerogen Aeroneb nebulizer and controller providing a flow of 400 μl/min and a particle size of 2-4 μm MMAD. Rolipram was administered i.p at 20 mg/kg. […] Four hours following LPS challenge, BALF was collected using a total of 3 ml of 0.9% sodium chloride containing 10% fetal calf serum. Total cell counts were determined using the Coulter Counter. For differential evaluations, BALF was centrifuged and cytospin slides prepared and stained with Hema3 stain. Manual leukocyte counts were then completed on 200 cells. The final concentration of individual leukocyte cell types per ml of BALF was determined by multiplication of the relative percentage of individual leukocytes with the total amount of cells/ml of BALF fluid. The concentration of IL-1β in the BALF samples was determined using commercially available Bio-plex kits (Bio-Rad). The analysis of cytokine levels was measured using the Bio-Plex 200 (Bio-Rad) system according to the manufacturer's instructions.

[6] = test system: A-10 rat thoracic aorta cells; assay: PDGF-stimulated smooth muscle cell proliferation assay (BrdU incorporation); type: cell-based; conditions: for Percent of PDGF Induced Proliferation at 1 μM Avg / Percent of PDGF Induced Proliferation at 10 μM Avg: A-10 cells, 10 ng/mL PDGF, BrdU incorporation, percent of total challenge-stimulated proliferation; for Percent of PDGF Induced Proliferation at 1 μM Avg: 1 μM test compound; for Percent of PDGF Induced Proliferation at 10 μM Avg: 10 μM test compound;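 on all read-outs here: cells kept in serum-free medium, BrdU allowed to incorporate for 24 h, then incorporated label detected fluorometrically with an anti-BrdU antibody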
Method: Effects on cell proliferation were measured using a bromodeoxyuridine (BrdU) incorporation assay. […] Serum free media containing 01% BSA was added to the cells. 24 hours later the media was removed and replaced with warmed serum free media. […] Proliferation was then monitored using the BrdU Cell Proliferation Assay, HTS (Calbiochem cat. #t HTS01). BrdU was allowed to incorporate into cells for 24 hours prior to the addition of fixative/denaturing solution and the fluorometric detection of incorporated BrdU using a BrdU antibody as per manufacturer's directions. Data are reported as a percent of the PDGF-stimulated BrdU incorporation.

murine eosinophils = assay: Murine eosinophil chemotaxis induced by eotaxin; type: cell-based, mouse; conditions: 10 nM eotaxin challenge; FIG. 1
Method: Bronchoalveolar lavage was collected from ovalbumin sensitized and challenged mice in a volume of 2.5 mL lavage buffer. The lavage buffer was 0.9% saline with 10% fetal bovine serum. The pooled lavages were maintained on ice until use. The murine eosinophils were isolated using MACS cell separation (Miltenyi Biotech) by depletion of B cells and T cells by positive selection following incubation with antibody conjugated magnetic beads specific for CD45-R (B220) and CD90 (Thy 1.2), which bind B cells and T cells, respectively.
Eosinophil chemotaxis was assessed using a modified Boyden Chamber (Neuroprobe, 96-well) with a 5 μm pore membrane. The ability of the tested compounds to block chemotaxis induced by a 10 nM eotaxin challenge (mouse) or 1 nM eotaxin challenge (human) during one hour incubation at 37° C. with 5% CO2 was assessed. Chemotaxis was quantified via microscopy by counting the number of migrated cells in at least 3 view fields per treatment.

human eosinophils = assay: Human eosinophil chemotaxis induced by eotaxin; type: cell-based; conditions: 1 nM eotaxin challenge; FIG. 2
Source text: Peripheral blood from healthy human volunteers was collected and the PMNs separated via Ficoll-paque density centrifugation followed by hypotonic lysis of the red blood cells. Subsequently, the human eosinophils were isolated from the cell suspension via StemCell Technologies Human Eosinophil Enrichment kit (Cat. No 19256) according to the manufacturer's recommendations. Briefly, unwanted cells were specifically labeled with dextran-coated magnetic nanoparticles using bispecific Tetrameric Antibody Complexes (TAC) directed against cell surface antigens on human blood cells: […] The unwanted cells are then separated from the unlabelled eosinophils using the EasySep® magnetic isolation procedure.

[7] = 30 μM ATP, Ki=IC50/(1+([ATP Challenge]/EC50 ATP)), read-out: Akt3 Ki, Avg
[8] = Neutrophil, 1 h, 1 μM fMLP challenge, one hour, read-out: Chemotaxis Avg. IC50
[9] = average IC50 for inhibition of fMLP-induced neutrophil chemotaxis, read-out: Chemotaxis IC50
[10] = 10 μM ATP, read-out: ROCK2 Ki, Avg
[11] = 30 μM ATP, Ki=IC50/(1+([ATP Challenge]/EC50 ATP)), read-out: p70S6K Ki, Avg
[12] = average Ki, read-out: p70S6K Ki
[13] = male, CD Sprague Dawley, mean n = 3
[14] = male, CD Sprague Dawley, mean n = 3, read-out: Cmax
[15] = male, CD Sprague Dawley, mean n = 3, read-out: Tmax
[16] = 15 μmol/kg, mean compound plasma concentration in mice at 15 minutes post oral administration, read-out: Mouse Oral PK

T1 sequence (Q9Y243 whole entry): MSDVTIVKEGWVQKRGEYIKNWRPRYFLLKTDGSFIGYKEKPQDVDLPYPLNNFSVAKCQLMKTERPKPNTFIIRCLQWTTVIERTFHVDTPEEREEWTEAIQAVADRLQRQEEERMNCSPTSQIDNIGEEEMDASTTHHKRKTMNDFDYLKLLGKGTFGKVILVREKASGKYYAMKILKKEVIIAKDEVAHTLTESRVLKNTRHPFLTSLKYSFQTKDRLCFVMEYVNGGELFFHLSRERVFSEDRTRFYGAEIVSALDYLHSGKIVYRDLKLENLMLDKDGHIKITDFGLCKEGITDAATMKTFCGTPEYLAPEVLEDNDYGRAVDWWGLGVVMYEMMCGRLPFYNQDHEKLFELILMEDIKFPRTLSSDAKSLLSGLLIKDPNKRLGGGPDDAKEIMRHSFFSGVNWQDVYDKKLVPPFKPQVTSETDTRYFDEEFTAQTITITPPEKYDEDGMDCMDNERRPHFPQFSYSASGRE
T3 sequence (O75116 11-552 limits assumed): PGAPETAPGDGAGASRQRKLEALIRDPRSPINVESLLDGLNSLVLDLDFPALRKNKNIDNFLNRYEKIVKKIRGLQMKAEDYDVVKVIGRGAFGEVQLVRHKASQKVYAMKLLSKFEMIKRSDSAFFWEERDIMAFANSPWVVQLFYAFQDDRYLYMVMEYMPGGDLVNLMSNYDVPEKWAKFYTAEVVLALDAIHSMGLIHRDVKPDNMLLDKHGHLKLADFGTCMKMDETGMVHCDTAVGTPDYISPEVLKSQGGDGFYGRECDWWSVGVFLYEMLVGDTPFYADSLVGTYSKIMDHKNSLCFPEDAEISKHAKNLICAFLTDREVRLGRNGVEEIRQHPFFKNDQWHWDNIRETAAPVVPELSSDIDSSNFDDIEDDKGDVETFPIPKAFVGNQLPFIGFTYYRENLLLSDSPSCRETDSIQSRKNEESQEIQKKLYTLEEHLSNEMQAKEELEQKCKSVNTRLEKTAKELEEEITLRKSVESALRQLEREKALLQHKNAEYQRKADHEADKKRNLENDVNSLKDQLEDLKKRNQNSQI
T2 sequence (Q13464 17-535 limits assumed): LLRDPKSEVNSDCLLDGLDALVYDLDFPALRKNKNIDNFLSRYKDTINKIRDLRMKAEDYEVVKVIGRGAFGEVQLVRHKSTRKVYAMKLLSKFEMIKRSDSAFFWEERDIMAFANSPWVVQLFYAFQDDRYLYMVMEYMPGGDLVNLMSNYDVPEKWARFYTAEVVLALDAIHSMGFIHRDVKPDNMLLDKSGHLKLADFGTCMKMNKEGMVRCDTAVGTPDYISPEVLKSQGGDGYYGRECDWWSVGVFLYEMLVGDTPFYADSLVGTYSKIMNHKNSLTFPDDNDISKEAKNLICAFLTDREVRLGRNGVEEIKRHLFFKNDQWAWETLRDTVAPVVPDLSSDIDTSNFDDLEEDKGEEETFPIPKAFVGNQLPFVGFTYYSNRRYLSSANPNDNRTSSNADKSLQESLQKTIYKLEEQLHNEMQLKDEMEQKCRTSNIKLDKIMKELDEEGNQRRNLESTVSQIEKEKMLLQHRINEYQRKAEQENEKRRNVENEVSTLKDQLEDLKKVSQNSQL
T4 sequence (P23443 1-421 T412E limits assumed): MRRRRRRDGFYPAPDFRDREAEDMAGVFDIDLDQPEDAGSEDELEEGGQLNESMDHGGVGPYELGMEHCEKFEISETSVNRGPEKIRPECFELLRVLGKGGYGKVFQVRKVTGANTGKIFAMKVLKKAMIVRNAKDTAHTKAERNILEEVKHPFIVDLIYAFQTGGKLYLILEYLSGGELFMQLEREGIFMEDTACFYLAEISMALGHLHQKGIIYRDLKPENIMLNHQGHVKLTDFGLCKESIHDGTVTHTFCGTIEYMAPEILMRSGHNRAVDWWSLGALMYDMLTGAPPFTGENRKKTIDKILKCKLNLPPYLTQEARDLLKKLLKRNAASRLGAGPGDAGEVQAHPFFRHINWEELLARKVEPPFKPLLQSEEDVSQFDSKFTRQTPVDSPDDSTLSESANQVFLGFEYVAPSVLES

Row | Compound | Vz_F ([1]; mean n = 3) | Ki (Akt3 human enzyme; [7]) [nM] | Ki (Akt3 human enzyme; average Ki, read-out: Akt3 Ki) [nM] | IC50 (human neutrophils; [8]) [nM] | IC50 (human neutrophils; [9]) [nM] | Ki (ROCK1; Avg, 10 μM ATP) [nM] | Ki (ROCK1; average Ki) [nM] | Ki (ROCK2; [10]) [nM] | Ki (p70S6K human enzyme; [11]) [nM] | Ki (p70S6K human enzyme; [12]) [nM] | Percent of PDGF Induced Proliferation at 1 μM Avg [6] [%] | Percent of PDGF Induced Proliferation at 10 μM Avg [6] [%] | AUC(0-t) [1, 13] [µM·h] | Cmax [1, 14] [nM] | Tmax [1, 15] [min] | half-life ([1]; male, CD Sprague Dawley) [min] | Airway eosinophil infiltration (eosinophils per ml of BALF) [2] | log10AUC (Penh) [3] | airway hyperreactivity to methacholine dosed on Day 32 [3] | concentration at 24 h ([4]; PO 15 μmol/kg) [nM] | other results
1 | CS(=O)(=O)Nc1cccc(CN2CCCC(Nc3ccc4[nH]ncc4c3)C2)c1 (stereo in doubt) [Compound 1.091, (S)-N-(3-((3-(1H-indazol-5-ylamino)piperidin-1-yl)methyl)phenyl)methanesulfonamide] | BLQ | 5390 | 5390 | 2330 | 2300 | 71.4 | 71.4 | 3.3 | 1420 | 1420 | 85.7 | 69.3 |  |  |  |  |  |  |  |  | AUC (0-last) ([1]; mean n = 3): BLQ; Cmax ([1]; mean n = 3): BLQ; Tmax ([1]; mean n = 3): BLQ; t½ ([1]; mean n = 3): BLQ; eosinophils (eosinophil influx, BALF) ([2]; dosed i.t. to day 30, anti-inflammatory dosing paradigm, FIG. 5): reduction of eosinophils; airway hyperreactivity ([3]; intratracheal once a day during days 27 to 30, FIG. 9): prevention of airway hyperreactivity; concentration at 3 h ([4]; intraperitoneal, IP 15 μmol/kg): 117 nM; concentration at 15 min ([5]; plasma, unsensitized mice, 15 min post administration, mean n = 3, read-out: Plasma Mean Concentration): 334 nM; IL-1β % (human monocytes): 165.5%; IL-1β levels in BALF from LPS-challenged mice (LPS-challenged mice): reduction; Proliferation at 1 μM, % ([6]; average percent of PDGF stimulated proliferation at 1 μM of test compound): 85.7%
2 | c1cc2cc(CN3CCC[C@@H](Nc4ccc5[nH]ncc5c4)C3)ccc2o1 [Compound 1.131, (R)-N-(1-(benzofuran-5-ylmethyl)piperidin-3-yl)-1H-indazol-5-amine] | 6.8 L/kg | 283 | 283 | 1590 | 1600 | 19.7 | 19.7 | 3.8 | 503 | 503 | 61.7 | 36.6 | 10.8 | 5610 | 49.8 | 93 | reduced | 2.0674 | prevention of airway hyperreactivity | 33 | concentration at 3 h ([4]; PO 15 μmol/kg): 7350 nM; Ki (ROCK2; average Ki, read-out: ROCK2 Ki): 3.8 nM; concentration at 15 min [5, 16]: 445 nM
3 | CS(=O)(=O)Nc1cccc(CN2CC[C@@H](Nc3cccc4cnccc34)C2)c1 [Compound 2.038, (R)-N-(3-((3-(isoquinolin-5-ylamino)pyrrolidin-1-yl)methyl)phenyl)methanesulfonamide] | 22.5 L/kg | 2550 | 2550 | 734 | 700 | 28.9 | 28.9 | 6.3 | 1400 | 1400 | 58.6 | 62.7 | 1.28 | 1040 | 30 | 42.6 | reduced | 1.8981 | prevention of airway hyperreactivity | 11 | concentration of IL-5 in BALF ([2]; 15 μmol/kg/oral on days 27 to 31, FIG. 6): reduced levels; concentration of Eotaxin in BALF ([2]; 15 μmol/kg/oral on days 27 to 31, FIG. 7): reduced levels; concentration of IL-13 in BALF ([2]; 15 μmol/kg/oral on days 27 to 31, FIG. 8): reduced levels; concentration at 3 h ([4]; PO 15 μmol/kg): 440 nM; eotaxin-induced chemotactic response of murine eosinophils (murine eosinophils): inhibited; eotaxin-induced chemotactic response of human eosinophils (human eosinophils): inhibited; Ki (ROCK2; average Ki, read-out: ROCK2 Ki): 6.3 nM; concentration at 15 min [5, 16]: 729 nM

— patent US20090325959A1 (priority 2008, published 2009)
